Laboratory results as given in US6423829B1 (St. Jude Children's Research Hosital, priority 1997, dated 2002).
pIC50: −log10 of the molar value. Counter-ions that a name gives are not always drawn. Blank lines part the entries; values can stand above or below the compound they belong to.

Columns and labels:
CEM/C19 cells = experiment: DUP-785 toxicity and uridine rescue in CEM/C19 cells; type: cell-based, human
[1] = tested on: concentrative nucleoside transporters (cif, cit, cib); conditions: at concentrations up to 10 μM; cited from earlier work
[2] = target: T1, hENT2 (ei transporter) in CEM/N1-7 cells (Homo sapiens, UniProt Q14542); experiment: 3H-uridine uptake in CEM/N1-7 cells in the presence of nucleoside transport inhibitors; type: cell-based; conditions: for effect on uridine transport in CEM/N1-7 cells: FIG. 1B
T1 construct: expressed in transfected cells; host or cells: CEM/C19 (nucleoside-transport-deficient, EBNA-1-expressing subline of human T-cell leukemia CEM) carrying plasmid pDR2/N1-7
T1 sequence (Q14542 1-456): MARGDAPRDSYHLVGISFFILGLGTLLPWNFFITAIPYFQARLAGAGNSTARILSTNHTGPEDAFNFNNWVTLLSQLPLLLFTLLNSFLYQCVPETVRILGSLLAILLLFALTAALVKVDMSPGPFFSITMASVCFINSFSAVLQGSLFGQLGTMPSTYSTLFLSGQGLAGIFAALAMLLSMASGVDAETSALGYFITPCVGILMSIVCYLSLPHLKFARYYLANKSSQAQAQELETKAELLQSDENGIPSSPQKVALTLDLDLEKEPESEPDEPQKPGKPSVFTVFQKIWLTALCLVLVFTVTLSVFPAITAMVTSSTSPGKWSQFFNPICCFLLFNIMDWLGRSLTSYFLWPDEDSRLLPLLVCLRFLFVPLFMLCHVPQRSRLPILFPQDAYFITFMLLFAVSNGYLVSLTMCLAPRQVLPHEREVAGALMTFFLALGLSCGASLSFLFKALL
Experimental: The values shown are means of duplicate assays and have been corrected for extracellular water space.
FIGS. 1B-1C depict the uptake of 10 μM ^3H-uridine determined at 22° C. in Na^+buffer using a 7.5 second uptake interval in the presence of nucleoside transport inhibitors. The uptake interval was initiated by simultaneous addition of the label and inhibitory nucleobase, nucleoside or nucleotide. […] This value was subtracted from the total uridine uptake values.
Removal of sodium from the buffer had no effect on transport in CEM/N1-7 indicating the presence of an equilibrative type transporter. […] (FIG. 1B). As expected from the permeant selectivity observed for ei activity in several cell lines [Plagemann et al., Biochim. Biophys. […] This was recently confirmed by Jarvis and colleagues [Osses et al., Biochem. J., 317:843-848 (1996)] by direct measurements of hypoxanthine in human vascular endothelial cells. […] All these features are consistent with those of an ei transporter, ie., an iENTP.

[3] = target: T2, human ei transporter in HeLa cells (Homo sapiens, UniProt Q14542); conditions: read-out: IC50 for inhibition of uridine transport via ei; cited from earlier work
T2 construct: the human ei transporter in HeLa cells where the IC50 values; host or cells: HeLa cells (endogenous)
T2 sequence (Q14542 1-456): T1 sequence (Q14542 1-456)

SMILES: Cc1c(-c2ccc(-c3ccccc3F)cc2)nc2ccc(F)cc2c1C(=O)O [DUP-785, 6-fluoro-2(2′--fluoro-1, 1′-biphenyl-4-yl)-3-methyl-4-quinoline carboxylic acid sodium salt]
- sensitivity of cells to the de novo uridylate synthesis inhibitor (CEM/C19 cells): sensitive

- effect on uridine transport in CEM/N1-7 cells ([2]; 0.1 μM inhibitor, 10 μM 3H-uridine, 22° C.): had no effect
- effect on uridine transport in CEM/N1-7 cells ([2]; higher concentrations of inhibitor): Partial inhibition
SMILES: O=[N+]([O-])c1ccc(CSc2ncnc3c2ncn3C2OC(CO)C(O)C2O)cc1 [NBMPR, 6-[(4-nitrobenzyl)thio-9-β-D-ribofuranosylpurine]]
- sensitivity of the concentrative nucleoside transporters [1]: insensitive
- pIC50 [3]: 5.22

- effect on uridine transport in CEM/N1-7 cells ([2]; 10 μM inhibitor): completely blocked
SMILES: OCCN(CCO)c1nc(N2CCCCC2)c2nc(N(CCO)CCO)nc(N3CCCCC3)c2n1 [DIP, bis(diethanolamino)-4,8-dipiperidinopyrimido-[5,4-d]-2,6-pyrimidine]
- sensitivity of the concentrative nucleoside transporters [1]: insensitive

- effect on uridine influx in CEM/N1-7 cells ([2]; competing nucleobase, nucleoside or nucleotide added with label, FIG. 1C): inhibited
SMILES: O=c1[nH]cnc2nc[nH]c12 [hypoxanthine]
